Data: patent US8124647B2 (priority 2002, dated 2012)
Where two headings read alike, the source gives them in different places.

Experiments:
human androgen receptor [1] = molecular target: T1, human androgen receptor (Homo sapiens, UniProt P10275); experiment: androgenic activity (EC50, potency, efficacy), transactivation bioassay in CHO-AR-pMMTV-LUC cells in the presence of 0.1 μmol/l onapristone (Table 5); format: cell-based; conditions: for Emax: read-out: ago efficacy; for ago potency: potency expressed as percentage of DHT activity, in the presence of 0.1 μmol/l onapristone
T1 construct: expressed in transfected cells; host or cells: CHO cells, cell line CHO-AR-pMMTV-LUC 1G12-A5-CA
T1 sequence (P10275 1-920): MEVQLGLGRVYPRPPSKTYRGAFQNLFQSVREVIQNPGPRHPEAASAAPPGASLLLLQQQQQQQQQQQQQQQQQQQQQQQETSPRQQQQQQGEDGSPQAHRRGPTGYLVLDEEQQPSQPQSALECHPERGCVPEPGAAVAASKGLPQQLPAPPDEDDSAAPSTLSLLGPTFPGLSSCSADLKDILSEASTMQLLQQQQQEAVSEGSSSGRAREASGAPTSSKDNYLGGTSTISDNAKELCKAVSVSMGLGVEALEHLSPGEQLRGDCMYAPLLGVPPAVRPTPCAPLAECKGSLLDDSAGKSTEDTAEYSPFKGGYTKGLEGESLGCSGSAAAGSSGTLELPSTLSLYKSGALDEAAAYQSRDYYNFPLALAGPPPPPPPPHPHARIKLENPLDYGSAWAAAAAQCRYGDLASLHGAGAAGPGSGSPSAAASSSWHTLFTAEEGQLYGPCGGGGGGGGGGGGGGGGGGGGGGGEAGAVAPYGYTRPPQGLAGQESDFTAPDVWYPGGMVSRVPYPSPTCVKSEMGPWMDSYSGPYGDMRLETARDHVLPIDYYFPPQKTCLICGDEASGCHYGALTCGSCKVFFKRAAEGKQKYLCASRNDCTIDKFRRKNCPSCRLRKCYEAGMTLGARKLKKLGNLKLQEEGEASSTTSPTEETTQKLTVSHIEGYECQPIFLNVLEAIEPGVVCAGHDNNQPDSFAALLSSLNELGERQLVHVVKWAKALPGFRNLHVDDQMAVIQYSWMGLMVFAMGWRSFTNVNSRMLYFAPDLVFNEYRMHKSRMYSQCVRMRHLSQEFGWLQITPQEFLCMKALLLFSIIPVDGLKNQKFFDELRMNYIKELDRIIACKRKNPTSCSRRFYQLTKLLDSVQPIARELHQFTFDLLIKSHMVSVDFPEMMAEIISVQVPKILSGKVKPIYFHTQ
Method: The androgenic activity (EC50, potency, and efficacy) of the compounds in Table 5 was determined in an in vitro bioassay of Chinese hamster ovary (CHO) cells stably transfected with the human androgen receptor expression plasmid and a reporter plasmid in which the MMTV promoter is linked to the luciferase reporter gene. The cell line CHO-AR-pMMTV-LUC 1G12-A5-CA is described in Schoonen et al. (J. Steroid Biochem. Moles. Biol. […]; 74: 213-222). The androgen receptor activity of compounds was determined in the presence of 0.1 μmol/l onapristone. The maximal efficacy in the presence of 100 nmol/l DHT was set as 100%. The potencies are expressed as percentage of DHT activity.

human androgen receptor [2] = molecular target: T1, human androgen receptor; experiment: androgenic activity (EC50 and intrinsic activity), transactivation bioassay in CHO-AR-pMMTV-LUC cells (Table 4); format: cell-based; conditions: androgenic activity, read-out: ago EC50
Method: (§1) Compounds were tested for their Androgen Receptor activity in a transactivation assay and in a binding assay.
(§2) The (anti-)androgenic activity of test compounds (EC50 and intrinsic activity) was determined in an in vitro bioassay of Chinese hamster ovary (CHO) cells stably transfected with the human androgen receptor expression plasmid and a reporter plasmid in which the MMTV-promoter is linked to the luciferase reporter gene. The cell-line CHO-AR-pMMTV-LUC 1G12-A5-CA is described in Schoonen et al. (2000), Journal of Steroid Biochemistry and Molecular Biology 74(4):213-222. The antiandrogenic activity of a test compound was determined by the inhibition of the transactivation via the androgen receptor of the enzyme luciferase in the presence of 1 nM DHT (5α-dihydrotestosterone, 17β-hydroxy-5α-androstan-3-one). Intrinsic activity of antiandrogenic activity was determined in the presence of the reference antiandrogen 2-Hydroxy-2-methyl-N-(4-nitro-3-trifluoromethyl-phenyl)-propionamide(Hydroxyflutamide), and set at 100%. For androgenic activity, maximal intrinsic activity in the presence of 100 nM DHT was set at 100%.

human androgen receptor [3] = molecular target: T1, human androgen receptor; experiment: cell-based; conditions: antiandrogenic activity, in the presence of 1 nM DHT; read-out: ant EC50
Method: as §1, §2

[4] = maximal intrinsic activity, activity in the presence of 100 nM DHT set at 1.00, CHO-AR-pMMTV-LUC cells, 0.1 μmol/l onapristone

| SMILES | Emax (human androgen receptor [1]; [4]) | ago potency (human androgen receptor [1]; CHO-AR-pMMTV-LUC cells) | Emax (human androgen receptor [1]) | EC50 (human androgen receptor [2]) | EC50 (human androgen receptor [3]) |
| --- | --- | --- | --- | --- | --- |
| CN(C)C(=O)c1ccc2c(Sc3ccccc3[N+](=O)[O-])cn(Cc3ccccn3)c2c1 [Compound 109, 3-(2-Nitro-phenylsulfanyl)-1-pyridin-2-ylmethyl-1H-indole-6-carboxylic acid dimethylamide] | > 80% | + (between 1% and 5%) |  |  |  |
| COc1ccc2c(Sc3ccccc3[N+](=O)[O-])cn(Cc3cc(F)cc(F)c3F)c2c1 [Compound 95, 6-Methoxy-3-(2-nitro-phenylsulfanyl)-1-(2,3,5-trifluoro-benzyl)-1H-indole] | > 80% | ± (between 0.1% and 1%) |  |  |  |
| CC(=O)Nc1ccc2c(Sc3ccccc3[N+](=O)[O-])cn(Cc3cccnc3)c2c1 [Compound 103, N-[3-(2-Nitro-phenylsulfanyl)-1-pyridin-3-ylmethyl-1H-indol-6-yl]-acetamide] | 50 to 80% | + (between 1% and 5%) |  |  |  |
| CC(=O)Nc1ccc2c(Sc3ccccc3[N+](=O)[O-])cn(Cc3ccccn3)c2c1 [Compound 101, N-[3-(2-Nitro-phenylsulfanyl]-1-pyridin-2-ylmethyl-1H-indol-6-yl]-acetamide] | 50 to 80% | + (between 1% and 5%) |  |  |  |
| NC(=O)c1ccc2c(Sc3ccccc3[N+](=O)[O-])cn(Cc3ccccn3)c2c1 [Compound 111, 3-(2-Nitro-phenylsulfanyl)-1-pyridin-2-ylmethyl-1H-indole-6-carboxylic acid amide] | 20 to 50% | ± (between 0.1% and 1%) |  |  |  |
| O=C(Nc1ccc2c(Sc3ccccc3[N+](=O)[O-])cn(Cc3cc(F)cc(F)c3)c2c1)C(F)F [Compound 98, N-[1-(3,5-Difluoro-benzyl)-3-(2-nitro-phenylsulfanyl)-1H-indol-6-yl]-2,2-difluoro-acetamide] | 50 to 80% | ++ (>5%) |  |  |  |
| CS(=O)(=O)Nc1ccc2c(Sc3ccccc3[N+](=O)[O-])cn(Cc3cc(F)cc(F)c3)c2c1 [Compound 106, N-[1-(3,5-Difluoro-benzyl)-3-(2-nitro-phenylsulfanyl)-1H-indol-6-yl]-methanesulfonamide] | > 80% | + (between 1% and 5%) |  |  |  |
| N#Cc1ccc2c(Sc3ccccc3[N+](=O)[O-])cn(Cc3cncnc3)c2c1 [Compound 123, 3-(2-Nitro-phenylsulfanyl)-1-pyrimidin-5-ylmethyl-1H-indole-6-carbonitrile] | > 80% | ++ (>5%) |  |  |  |
| N#Cc1cccc(Cn2cc(Sc3ccccc3[N+](=O)[O-])c3ccc(C#N)cc32)c1 [Compound 125, 1-(3-Cyano-benzyl)-3-(2-nitro-phenylsulfanyl)-1H-indole-6-carbonitrile] | > 80% | + (between 1% and 5%) |  |  |  |
| CCNC(=O)c1ccc2c(Sc3ccccc3[N+](=O)[O-])cn(Cc3cccnc3)c2c1 [Compound 113, 3-(2-Nitro-phenylsulfanyl)-1-pyridin-3-ylmethyl-1H-indole-6-carboxylic acid ethylamide] | 50 to 80% | + (between 1% and 5%) |  |  |  |
| CNC(=O)c1ccc2c(Sc3ccccc3[N+](=O)[O-])cn(Cc3cccnc3)c2c1 [Compound 112, 3-(2-Nitro-phenylsulfanyl)-1-pyridin-3-ylmethyl-1H-indole-6-carboxylic acid methylamide] | 20 to 50% | + (between 1% and 5%) |  |  |  |
| COc1ccc2c(Sc3ccccc3[N+](=O)[O-])cn(Cc3cnccn3)c2c1 [Compound 117, 6-Methoxy-3-(2-nitro-phenylsulfanyl)-1-pyrazin-2-ylmethyl-1H-indole] | 50 to 80% | + (between 1% and 5%) |  |  |  |
| CCC(=O)Nc1ccc2c(Sc3ccccc3[N+](=O)[O-])cn(Cc3cccnc3)c2c1 [Compound 105, N-[3-(2-Nitro-phenylsulfany)-1-pyridin-3-ylmethyl-1H-indol-6-yl]-propionamide] | 20 to 50% | + (between 1% and 5%) |  |  |  |
| N#Cc1ccc2c(Sc3ccccc3[N+](=O)[O-])cn(Cc3ccccn3)c2c1 [Compound 119, 3-(2-Nitro-phenylsulfanyl)-1-pyridin-2-ylmethyl-1H-indole-6-carbonitrile] | > 80% | ++ (>5%) |  |  |  |
| CNC(=O)c1ccc2c(Sc3ccccc3[N+](=O)[O-])cn(Cc3ccccn3)c2c1 [Compound 110, 3-(2-Nitro-phenylsulfanyl)-1-pyridin-2-ylmethyl-1H-indole-6-carboxylic acid methylamide] | 50 to 80% | + (between 1% and 5%) |  |  |  |
| O=[N+]([O-])c1ccccc1Sc1cn(Cc2cc(F)cc(F)c2)c2cc(NS(=O)(=O)c3ccsc3)ccc12 [Compound 107, Thiophene-3-sulfonic acid [1-(3,5-difluoro-benzyl)-3-(2-nitro-phenylsulfanyl)-1H-indol-6-yl]-amide] | > 80% | + (between 1% and 5%) |  |  |  |
| O=C(NC1CC1)c1ccc2c(Sc3ccccc3[N+](=O)[O-])cn(Cc3cccnc3)c2c1 [Compound 114, 3-(2-Nitro-phenylsulfanyl)-1-pyridin-3-ylmethyl-1H-indole-6-carboxylic acid cyclopropylamide] | > 80% | + (between 1% and 5%) |  |  |  |
| COc1ccc2c(Sc3ccccc3[N+](=O)[O-])cn(Cc3ccncc3)c2c1 [Compound 93, 6-Methoxy-3-(2-nitro-phenylsulfanyl)-1-pyridin-4-ylmethyl-1H-indole] | 50 to 80% | ± (between 0.1% and 1%) |  |  |  |
| N#Cc1ccc2c(Sc3ccccc3[N+](=O)[O-])cn(Cc3ccncn3)c2c1 [Compound 124, 3-(2-Nitro-phenylsulfanyl)-1-pyrimidin-4-ylmethyl-1H-indole-6-carbonitrile] | > 80% | ++ (>5%) |  |  |  |
| O=C(CF)Nc1ccc2c(Sc3ccccc3[N+](=O)[O-])cn(Cc3ccccn3)c2c1 [Compound 100, 2-Fluoro-N-[3-(2-nitro-phenylsulfanyl)-1-pyridin-2-ylmethyl-1H-indol-6-yl]-acetamide] |  | + (between 1% and 5%) | > 80% |  |  |
| CC(C)CNC(=O)c1ccc2c(Sc3ccccc3[N+](=O)[O-])cn(Cc3cc(F)cc(F)c3)c2c1 [Compound 42] |  |  |  | 5 to 100 nM | > 10000 nM |
| COc1ccc2c(Sc3ccccc3[N+](=O)[O-])cn(Cc3cccc(C)c3F)c2c1 [Compound 2] |  |  |  | < 1000 nM | > 10000 nM |
| N#Cc1ccc2c(Sc3ccccc3[N+](=O)[O-])cn(Cc3cc(F)cc(F)c3)c2c1 [Compound 26, 1-(3,5-Difluoro-benzyl)-3-(2-nitro-phenylsulfanyl)-1H-indole-6-carbonitrile] |  |  |  | < 5 nM | > 10000 nM |
| O=C(NCCO)c1ccc2c(Sc3ccccc3[N+](=O)[O-])cn(Cc3cc(F)cc(F)c3)c2c1 [Compound 37] |  |  |  | < 5 nM | > 10000 nM |
| COc1ccc2c(Sc3ccccc3[N+](=O)[O-])cn(Cc3cc(C)on3)c2c1 [Compound 13] |  |  |  | < 1000 nM | > 10000 nM |
| O=[N+]([O-])c1ccccc1Sc1cn(Cc2cc(F)cc(F)c2)c2cc(F)ccc12 [Compound 50] |  |  |  | 5 to 100 nM | > 10000 nM |
